In patent US10815264B2, “Nucleotides for the treatment of cancer” (IDENIX PHARMACEUTICALS LLC, priority 2015, dated 2020):
Read-outs that look alike come from different tables or passages of the source.

What was measured:
Assay in all cases: In vitro inhibition, CellTiter-Glo (CTG) assay, 72 hr exposure
Assay type in all cases: cell-based
HL-60 = tested on: HL-60
Method: (§1) Cells were grown in RPMI-1640 supplemented with L-Glutamine and 10% FBS of the following cell lines:
(§2) CCRF-CEM; CCRF-CEM-cytarabine resistant; HL-60; K562; CFPAC-1; MiaPACA-2; BxPC-3; PANC-1; HepG2; MDA-MB-231; HCT-116; A498; and NCI-H69
(§3) 18, 96 well plates of each cell line were seeded with the optimized number of cells per well in a total volume of 50 μL per well. The plates were left overnight. Plate wells were seeded with 100 μL media for media control. The following day, cells were exposed to test compounds as described below. At the same time as drug exposure, a CTG assay was conducted on the 18th plate for the 0 hr count.
(§4) The compounds were added to cells and medium already on the plate to give desired final concentrations. 50 μL media were added to cell control wells, and 50 μL of mix added to vehicle control wells. 10 μM Doxorubicin was added to appropriate wells. Cells exposed to test compound were incubated at 37° C. for 72 hr followed by a CTG assay.
(§5) At the end of the 72 hr exposure period, plates were removed for a CellTiter-Glo (CTG) assay from a 37° C., 5% CO2 incubator and placed on the bench at room temperature for 30 mins. 100 μL of CellTiter-Glo reagent was added and mixed for 2 mins, followed by a further 10 min incubation at room temperature. Luminescence was recorded using Synergy 4.0.

[1] = tested on: CCRF-CEM-cytarabine resistant
Method: as §1, §2, §3, §4, §5

NCI-H69 = tested on: NCI-H69
Method: as §1, §2, §3, §4, §5

HCT-116 = tested on: HCT-116
Method: as §1, §2, §3, §4, §5

PANC-1 = details: PANC-1, 72 hr
Method: as §1, §2, §3, §4, §5

A498 = tested on: A498
Method: as §1, §2, §3, §4, §5

CFPAC-1 = tested on: CFPAC-1
Method: as §1, §2, §3, §4, §5

BxPC-3 = tested on: BxPC-3
Method: as §1, §2, §3, §4, §5

MiaPACA-2 = tested on: MiaPACA-2
Method: as §1, §2, §3, §4, §5

MDA-MB-231 = details: MDA-MB-231, 72 hr
Method: as §1, §2, §3, §4, §5

CCRF-CEM = tested on: CCRF-CEM
Method: as §1, §2, §3, §4, §5

K562 = details: K562, 72 hr
Method: as §1, §2, §3, §4, §5

HepG2 = tested on: HepG2
Method: as §1, §2, §3, §4, §5

[2] = Homo sapiens, MIA PaCa-2, MiaPACA-2, 72 hr

Structure (SMILES)	IC50 (HL-60; Homo sapiens, HL-60, 72 h)	IC50 [1]	IC50 (NCI-H69; Homo sapiens, NCI-H69, 72 h)	IC50 (HCT-116; Homo sapiens, HCT-116, 72 h)	IC50 (PANC-1; Homo sapiens)	IC50 (A498; Homo sapiens, A498, 72 h)	IC50 (CFPAC-1; Homo sapiens, CFPAC-1, 72 h)	IC50 (BxPC-3; Homo sapiens, BXPC-3, 72 h)	IC50 (MiaPACA-2; [2])	IC50 (MDA-MB-231; Homo sapiens)	IC50 (CCRF-CEM; Homo sapiens, 72 h)	IC50 (K562; Homo sapiens)	IC50 (HepG2; Homo sapiens, HepG2, 72 h)	IC50 (HL-60; HL-60, 72 hr)	IC50 (NCI-H69; NCI-H69, 72 hr)	IC50 (HCT-116; HCT-116, 72 hr)	IC50 (A498; A498, 72 hr)	IC50 (CFPAC-1; CFPAC-1, 72 hr)	IC50 (BxPC-3; BxPC-3, 72 hr)	IC50 (HepG2; HepG2, 72 hr)	further results
Cn1c(COP(=O)(NCc2ccccc2)O[C@H]2[C@H](O)[C@H](n3ccc(N)nc3=O)S[C@@H]2CO)cnc1[N+](=O)[O-] (mixture of isomers) [Compound 106b (mixture of diastereoisomers), 4-amino-1-[(2R,3S,4S,5R)-4-[(benzylamino)-[(3-methyl-2-nitro-imidazol-4-yl)methoxy]phosphoryl]oxy-3-hydroxy-5-(hydroxymethyl)tetrahydrothiophen-2-yl]pyrimidin-2-one]	10 to 100 µM	10 to 100 µM	10 to 100 µM	10 to 100 µM	10 to 100 µM	10 to 100 µM	10 to 100 µM	10 to 100 µM	10 to 100 µM	10 to 100 µM	10 to 100 µM	10 to 100 µM	10 to 100 µM	–	–	–	–	–	–	–	–
COC(=O)COP(=O)(N[C@@H](CC(C)C)C(=O)OC)OC[C@H]1S[C@@H](n2ccc(N)nc2=O)[C@@H](O)[C@@H]1O (single isomer, unassigned) [Compound 104b (diastereoisomer 2)]	–	10 to 100 µM	–	–	–	–	–	–	–	–	–	–	–	< 1 µM	10 to 100 µM	10 to 100 µM	10 to 100 µM	10 to 100 µM	10 to 100 µM	10 to 100 µM	IC50 (PANC-1): 10 to 100 µM; IC50 (MiaPACA-2; MiaPACA-2, 72 hr): 10 to 100 µM; IC50 (MDA-MB-231): 10 to 100 µM; IC50 (CCRF-CEM): < 1 µM; IC50 (K562): 10 to 100 µM
CC(=O)OC[C@H](C)NP1(=O)OC[C@H]2S[C@@H](n3ccc(N)nc3=O)[C@@H](O)[C@@H]2O1 (single isomer, unassigned) [Compound 108b (diastereoisomer 1)]	10 to 100 µM	10 to 100 µM	10 to 100 µM	10 to 100 µM	10 to 100 µM	10 to 100 µM	10 to 100 µM	10 to 100 µM	10 to 100 µM	10 to 100 µM	10 to 100 µM	10 to 100 µM	10 to 100 µM	–	–	–	–	–	–	–	–
COC(=O)COP(=O)(N[C@@H](CC(C)C)C(=O)OC)OC[C@H]1S[C@@H](n2ccc(N)nc2=O)[C@@H](O)[C@@H]1O (single isomer, unassigned) [Compound 104b (diastereoisomer 1)]	1 to 10 µM	10 to 100 µM	10 to 100 µM	10 to 100 µM	10 to 100 µM	10 to 100 µM	10 to 100 µM	10 to 100 µM	10 to 100 µM	10 to 100 µM	< 1 µM	10 to 100 µM	–	–	–	–	–	–	–	1 to 10 µM	–
CCOC(=O)COP(=O)(N[C@@H](CC(C)C)C(=O)OCC)OC[C@H]1S[C@@H](n2ccc(N)nc2=O)[C@@H](O)[C@@H]1O (single isomer, unassigned) [Compound 102b (diastereoisomer 1)]	1 to 10 µM	10 to 100 µM	10 to 100 µM	10 to 100 µM	10 to 100 µM	10 to 100 µM	10 to 100 µM	10 to 100 µM	10 to 100 µM	10 to 100 µM	< 1 µM	10 to 100 µM	–	–	–	–	–	–	–	1 to 10 µM	–
CC(C)(C)SSCCOP(=O)(NCc1ccccc1)OC[C@H]1S[C@@H](n2ccc(N)nc2=O)[C@@H](O)[C@@H]1O (single isomer, unassigned) [Compound 105 (diastereoisomer 2)]	–	10 to 100 µM	–	–	–	–	–	–	–	–	–	–	–	10 to 100 µM	10 to 100 µM	10 to 100 µM	10 to 100 µM	10 to 100 µM	10 to 100 µM	10 to 100 µM	IC50 (PANC-1): 10 to 100 µM; IC50 (MiaPACA-2; MiaPACA-2, 72 hr): 1 to 10 µM; IC50 (MDA-MB-231): 10 to 100 µM; IC50 (CCRF-CEM): 10 to 100 µM; IC50 (K562): 10 to 100 µM
CC(C)OC(=O)[C@H](C)NP(=O)(OC[C@H]1S[C@@H](n2ccc(N)nc2=O)[C@@H](O)[C@@H]1O)Oc1ccccc1 (single isomer, unassigned) [Compound 101b (diastereoisomer 1)]	–	10 to 100 µM	–	–	10 to 100 µM	–	–	–	–	10 to 100 µM	–	–	–	1 to 10 µM	–	10 to 100 µM	–	10 to 100 µM	10 to 100 µM	10 to 100 µM	IC50 (NCI-H69; Homo sapiens, NCI-H69, 72 hr): 10 to 100 µM; IC50 (A498; Homo sapiens, A498, 72 hr): 10 to 100 µM; IC50 (MiaPACA-2; MiaPACA-2, 72 hr): 10 to 100 µM; IC50 (CCRF-CEM): < 1 µM; IC50 (K562): 10 to 100 µM
Nc1ccn([C@@H]2S[C@H](COP(=O)(NCc3ccccc3)OCc3ccc([N+](=O)[O-])o3)[C@@H](O)[C@@H]2O)c(=O)n1 (single isomer, unassigned) [Compound 103 (diastereoisomer 1)]	< 1 µM	1 to 10 µM	–	–	10 to 100 µM	–	–	–	1 to 10 µM	10 to 100 µM	< 1 µM	1 to 10 µM	1 to 10 µM	–	10 to 100 µM	10 to 100 µM	10 to 100 µM	10 to 100 µM	10 to 100 µM	–	–
Nc1ccn([C@@H]2S[C@H](COP(=O)(O)NCc3ccccc3)[C@@H](O)[C@@H]2O)c(=O)n1 [Compound 107, [(2R,3S,4S,5R)-5-(4-amino-2-oxo-pyrimidin-1-yl)-3,4-dihydroxy-tetrahydrothiophen-2-yl]methoxy-N-benzyl-phosphonamidic acid]	1 to 10 µM	10 to 100 µM	10 to 100 µM	10 to 100 µM	10 to 100 µM	10 to 100 µM	10 to 100 µM	10 to 100 µM	1 to 10 µM	10 to 100 µM	1 to 10 µM	10 to 100 µM	1 to 10 µM	–	–	–	–	–	–	–	–
CCOC(=O)COP(=O)(N[C@@H](CC(C)C)C(=O)OCC)OC[C@H]1S[C@@H](n2ccc(N)nc2=O)[C@@H](O)[C@@H]1O (single isomer, unassigned) [Compound 102b (diastereoisomer 2)]	–	10 to 100 µM	–	–	–	–	–	–	–	–	–	–	–	1 to 10 µM	10 to 100 µM	10 to 100 µM	10 to 100 µM	10 to 100 µM	10 to 100 µM	10 to 100 µM	IC50 (PANC-1): 10 to 100 µM; IC50 (MiaPACA-2; MiaPACA-2, 72 hr): 10 to 100 µM; IC50 (MDA-MB-231): 10 to 100 µM; IC50 (CCRF-CEM): < 1 µM; IC50 (K562): 10 to 100 µM
